In patent US20080194642A1, “HIGH DOSE, LONG-ACTING ECTOPARASITICIDE FOR EXTENDED CONTROL” (Wyeth, priority 2007, published 2008):

Experiments:
[1] = system: cat flea, Ctenocephalides felis; assay: Duration of control in dogs treated with ectoparasiticides at up to 3x the conventional dose against the cat flea (Example 6); format: in vivo
Text: In this evaluation, 32 mixed breed male or female dogs, aged 1 to 10 years, were used. Dogs were not treated with an ectoparasiticide for 60 days prior to the study. No drugs, baths, shampoos or pesticides were given to the dogs during the preconditioning phase or during the course of the study other than what is described in the protocol. At least 36 dogs were preconditioned for 14 days. All dogs were bathed with noninsecticidal shampoo (Day −12 to −8). On Day −7, each dog was infested with 100 unfed cat fleas, Ctenocephalides felis. On Day −5, each dog was thoroughly examined and then combed to remove and count fleas. Dogs were selected for inclusion in the study on the basis of flea retention and/or behavior. The 32 dogs with the highest flea counts were selected for the study, except for exclusion of dogs deemed not easily handled. The dogs were blocked by flea number retained, and randomly allocated within blocks into 8 groups of 4 dogs.
Applications for Groups B-H were administered using disposable syringes. Each dog received a spot of the appropriate formulation to the skin (by syringe without a needle) at the dorsal midline between the shoulder blades. Group A was left untreated. […] Observations for post-treatment adverse reactions, skin irritation and behavior of test formulations were made at four hours following administration of treatments. Thereafter, dogs were observed once daily on Days 1-14 for formulation acceptability, adverse reactions, or signs of skin irritation following treatment. Daily observations of the physical condition of the animals were made throughout the trial.
Dogs were infested with 100 adult cat fleas, Ctenocephalides felis, on Day 14 and then examined for live fleas on Day 16. The dogs were re-infested/examined on Days 28/30, 56/58, 70/72, 84/86 and then infested and examined again at 2 week intervals until efficacy waned. At each infestation, 100 unfed adult fleas were applied along the lateral midline of each dog. The negative control group (Group A) was infested before the test compound groups. Fleas were recovered by examining and combing the groups in the same order. Combs were washed and rinsed with alcohol between dogs. Plastic gloves and aprons were changed between treatment groups.
(§1) Flea counts were transformed by log (count +1), and geometric means were used to calculate percent efficacy for the treatments using (Yc−Yt)/Yc*100, where Yc and Yt equal mean counts for control and treated groups, respectively.

[2] = system: cat flea, Ctenocephalides felis; assay: Duration of efficacy of high doses of ectoparasiticides against the cat flea in cats (Example 5); format: in vivo
Text: In this evaluation, 32 domestic shorthair cats of mixed sex, aged at least 6 months, were used to test the high doses of ectoparasiticides disclosed herein. Cats were free of ectoparasiticide treatment for 60 days prior to administration of the experimental treatments. No drugs, baths, shampoos, or pesticides were given to the cats during the preconditioning phase or during the course of the study other than what is described in the protocol. At least 36 cats were preconditioned for 7 days. On day −7, each cat was infested with 100 unfed cat fleas, Ctenocephalides felis. On Day −5, each cat was thoroughly examined and combed to remove and count fleas. 32 cats were ranked in descending order by flea count. From the ranking, the cats were divided into four blocks of eight cats each. The eight cats within each of the four blocks were randomly allocated to treatment groups (A-H).
Applications for groups B-H were administered using a disposable syringe. The dose was applied as a single spot on the dorsal neck at the base of the skull. Group A was left untreated. […] On Days 1 through 14 following administration of the treatments, cats were observed daily for reactions and formulation acceptability. Thereafter, cats were observed once daily for the remainder of the study. Cats were infested with 100 adult cat fleas on Day 14 then examined for fleas on Day 16. The cats were re-infested and examined again on Days 28 and 30, on Days 56 and 58 then bi-weekly until efficacy waned. At each infestation, 100 unfed adult fleas were applied along the dorsal rump of each cat. The negative control group (Group A) was infested before the test compound groups. Fleas were recovered by examining and combing the groups in the same order. Combs were washed and rinsed with alcohol between cats, and latex gloves were changed between treatment groups.
as §1

[3] = 7 mg fipronil/kg (1×) spot-on, Day 16
[4] = 7 mg fipronil/kg (1×) spot-on, Day 30
[5] = 7 mg fipronil/kg (1×) spot-on, Day 58
[6] = 7 mg fipronil/kg (1×) spot-on, Day 72
[7] = 7 mg fipronil/kg (1×) spot-on, Day 86
[8] = 7 mg fipronil/kg (1×) spot-on, Day 100
[9] = 7 mg fipronil/kg (1×) spot-on, Day 114
[10] = 21 mg fipronil/kg (3×) spot-on, Day 16
[11] = 21 mg fipronil/kg (3×) spot-on, Day 30
[12] = 21 mg fipronil/kg (3×) spot-on, Day 58
[13] = 21 mg fipronil/kg (3×) spot-on, Day 72
[14] = 21 mg fipronil/kg (3×) spot-on, Day 86
[15] = 21 mg fipronil/kg (3×) spot-on, Day 100
[16] = 7.5 mg fipronil/kg spot-on, Day 16
[17] = 7.5 mg fipronil/kg spot-on, Day 30
[18] = 7.5 mg fipronil/kg spot-on, Day 58
[19] = 7.5 mg fipronil/kg spot-on, Day 72
[20] = 7.5 mg fipronil/kg spot-on, Day 86
[21] = 7.5 mg fipronil/kg spot-on, Day 100
[22] = 22.5 mg fipronil/kg spot-on, Day 16
[23] = 22.5 mg fipronil/kg spot-on, Day 30
[24] = 22.5 mg fipronil/kg spot-on, Day 58
[25] = 22.5 mg fipronil/kg spot-on, Day 72
[26] = 22.5 mg fipronil/kg spot-on, Day 86
[27] = 22.5 mg fipronil/kg spot-on, Day 100
[28] = 10 mg imidacloprid/kg (1×) spot-on, Day 16
[29] = 10 mg imidacloprid/kg (1×) spot-on, Day 30
[30] = 10 mg imidacloprid/kg (1×) spot-on, Day 58
[31] = 10 mg imidacloprid/kg (1×) spot-on, Day 72
[32] = 10 mg imidacloprid/kg (1×) spot-on, Day 86
[33] = 30 mg imidacloprid/kg (3×) spot-on, Day 16
[34] = 30 mg imidacloprid/kg (3×) spot-on, Day 30
[35] = 30 mg imidacloprid/kg (3×) spot-on, Day 58
[36] = 30 mg imidacloprid/kg (3×) spot-on, Day 72
[37] = 30 mg imidacloprid/kg (3×) spot-on, Day 86
[38] = 10 mg imidacloprid/kg spot-on, Day 16
[39] = 10 mg imidacloprid/kg spot-on, Day 30
[40] = 10 mg imidacloprid/kg spot-on, Day 58
[41] = 10 mg imidacloprid/kg spot-on, Day 72
[42] = 10 mg imidacloprid/kg spot-on, Day 86
[43] = 10 mg imidacloprid/kg spot-on, Day 100
[44] = 30 mg imidacloprid/kg spot-on, Day 16
[45] = 30 mg imidacloprid/kg spot-on, Day 30
[46] = 30 mg imidacloprid/kg spot-on, Day 58
[47] = 30 mg imidacloprid/kg spot-on, Day 72
[48] = 30 mg imidacloprid/kg spot-on, Day 86
[49] = 30 mg imidacloprid/kg spot-on, Day 100

## N#Cc1nn(-c2c(Cl)cc(C(F)(F)F)cc2Cl)c(N)c1[S+]([O-])C(F)(F)F (stereo not shown) [fipronil]
[1]; [3]
  % Efficacy: 99.8%
  Flea Counts/Dog/Day (Geometric Means): 0.2
[1]; [4]
  % Efficacy: 99.8%
  Flea Counts/Dog/Day (Geometric Means): 0.2
[1]; [5]
  % Efficacy: 100.0%
  Flea Counts/Dog/Day (Geometric Means): 0.0
[1]; [6]
  % Efficacy: 96.9%
  Flea Counts/Dog/Day (Geometric Means): 2.4
[1]; [7]
  % Efficacy: 97.4%
  Flea Counts/Dog/Day (Geometric Means): 2.3
[1]; [8]
  % Efficacy: 94.1%
  Flea Counts/Dog/Day (Geometric Means): 4.3
[1]; [9]
  % Efficacy: 84.7%
  Flea Counts/Dog/Day (Geometric Means): 10.2
[1]; [10]
  % Efficacy: 100.0%
  Flea Counts/Dog/Day (Geometric Means): 0.0
[1]; [11]
  % Efficacy: 100.0%
  Flea Counts/Dog/Day (Geometric Means): 0.0
[1]; [12]
  % Efficacy: 90.7%
  Flea Counts/Dog/Day (Geometric Means): 7.5
[1]; [13]
  % Efficacy: 85.4%
  Flea Counts/Dog/Day (Geometric Means): 11.4
[1]; [14]
  % Efficacy: 48.0%
  Flea Counts/Dog/Day (Geometric Means): 45.3
[1]; [15]
  % Efficacy: 39.5%
  Flea Counts/Dog/Day (Geometric Means): 44.1
[2]; [16]
  % Efficacy: 97.7%
  Flea comb count, G.M.: 1.2
[2]; [17]
  % Efficacy: 96.4%
  Flea comb count, G.M.: 2.3
[2]; [18]
  % Efficacy: 78.8%
  Flea comb count, G.M.: 11.5
[2]; [19]
  % Efficacy: 81.1%
  Flea comb count, G.M.: 12.5
[2]; [20]
  % Efficacy: 66.9%
  Flea comb count, G.M.: 19.2
[2]; [21]
  % Efficacy: 14.3%
  Flea comb count, G.M.: 50.6
[2]; [22]
  % Efficacy: 97.8%
  Flea comb count, G.M.: 1.2
[2]; [23]
  % Efficacy: 100.0%
  Flea comb count, G.M.: 0.0
[2]; [24]
  % Efficacy: 93.8%
  Flea comb count, G.M.: 3.4
[2]; [25]
  % Efficacy: 94.7%
  Flea comb count, G.M.: 3.5
[2]; [26]
  % Efficacy: 64.9%
  Flea comb count, G.M.: 20.3
[2]; [27]
  % Efficacy: 31.5%
  Flea comb count, G.M.: 40.4

## N#Cc1ccc(CC(=NNC(=O)Nc2ccc(OC(F)(F)F)cc2)c2cccc(C(F)(F)F)c2)cc1 (mixture of isomers) [metaflumizone, (E,Z)-2-[2-(4-cyanophenyl)-1-[3-(trifluoromethyl)phenyl]ethylidene]-N-[4-(tri-fluoromethoxy)phenyl]hydrazinecarboxamide]
[1]; metaflumizone 60 mg/kg (3×) spot-on, Day 128
  % Efficacy: 96.5%

## O=[N+]([O-])/N=C1\NCCN1Cc1ccc(Cl)nc1 [imidacloprid]
[1]; [28]
  % Efficacy: 100.0%
  Flea Counts/Dog/Day (Geometric Means): 0.0
[1]; [29]
  % Efficacy: 100.0%
  Flea Counts/Dog/Day (Geometric Means): 0.0
[1]; [30]
  % Efficacy: 98.1%
  Flea Counts/Dog/Day (Geometric Means): 1.5
[1]; [31]
  % Efficacy: 80.3%
  Flea Counts/Dog/Day (Geometric Means): 15.4
[1]; [32]
  % Efficacy: 88.9%
  Flea Counts/Dog/Day (Geometric Means): 9.7
[1]; 10 mg imidacloprid/kg (1×) spot-on, Day 100
  % Efficacy: 78.3%
[1]; 10 mg imidacloprid/kg (1×) spot-on, Day 114
  % Efficacy: 52.6%
[1]; [33]
  % Efficacy: 100.0%
  Flea Counts/Dog/Day (Geometric Means): 0.0
[1]; [34]
  % Efficacy: 100.0%
  Flea Counts/Dog/Day (Geometric Means): 0.0
[1]; [35]
  % Efficacy: 100.0%
  Flea Counts/Dog/Day (Geometric Means): 0.0
[1]; [36]
  % Efficacy: 97.0%
  Flea Counts/Dog/Day (Geometric Means): 2.4
[1]; [37]
  % Efficacy: 96.4%
  Flea Counts/Dog/Day (Geometric Means): 3.1
[1]; 30 mg imidacloprid/kg (3×) spot-on, Day 100
  % Efficacy: 96.8%
[1]; 30 mg imidacloprid/kg (3×) spot-on, Day 114
  % Efficacy: 96.6%
[1]; 30 mg imidacloprid/kg (3×) spot-on, Day 128
  % Efficacy: 94.5%
[2]; [38]
  % Efficacy: 100.0%
  Flea comb count, G.M.: 0.0
[2]; [39]
  % Efficacy: 98.5%
  Flea comb count, G.M.: 1.0
[2]; [40]
  % Efficacy: 81.4%
  Flea comb count, G.M.: 10.0
[2]; [41]
  % Efficacy: 84.8%
  Flea comb count, G.M.: 10.0
[2]; [42]
  % Efficacy: 71.1%
  Flea comb count, G.M.: 16.7
[2]; [43]
  % Efficacy: 43.5%
  Flea comb count, G.M.: 33.3
[2]; [44]
  % Efficacy: 100.0%
  Flea comb count, G.M.: 0.0
[2]; [45]
  % Efficacy: 99.5%
  Flea comb count, G.M.: 0.3
[2]; [46]
  % Efficacy: 100.0%
  Flea comb count, G.M.: 0.0
[2]; [47]
  % Efficacy: 99.0%
  Flea comb count, G.M.: 0.7
[2]; [48]
  % Efficacy: 96.0%
  Flea comb count, G.M.: 2.3
[2]; [49]
  % Efficacy: 91.4%
  Flea comb count, G.M.: 5.1
